From patent US7820202B2, “Extended release particle dispersion” (Laboratorios Farmaceuticos Rovi S.A., priority 2000, dated 2010)

Columns and labels:
[1] = cited from earlier work
[2] = Encapsulation efficiency of drug in PLGA extended release particles; type: physicochemical; settings: poly(d,l-lactide-co-glycolide) particles formed by mixing two liquid preproducts (ethyl acetate polymer solution / aqueous phase)
Protocol: A solution of poly(d,l-lactide-co-glycolide) (75/25, RG752 or 50/50, RG 502H or 503H from Böhringer Ingelheim) (40% w/w) in ethyl acetate (syringe 1) (200μl) (first liquid preproduct) is mixed with an aqueous phase (water for injection, Tween 80- or alternatively Pluronic F 68-, Na carboxy methylcellulose) (syringe 2) (2ml) (second liquid preproduct) by connecting the two syringes with a connector or by screwing the two syringes together and by pushing the plungers forward and backward (25 mixing cycles). The extended release particles are thereby formed, which are dispersed in the aqueous phase and which are ready to be injected.
(§1) Like example 1. In addition, a water-insoluble salt of leuprolide, leuprolide oleate, was formed from aqueous leuprolide acetate and sodium oleate solutions. The insoluble salt was separated from the aqueous phase, dried and then added to the poly(d,l-lactide-co-glycolide) solution to form the first liquid preproduct, wherein the drug is dispersed and/or dissolved in the polymer solution. The first liquid preproduct is mixed with and dispersed in the second liquid preproduct.

[3] = Drug release from extended release particles in pH 7.4 phosphate buffer; type: physicochemical; settings: pH 7.4 phosphate buffer (simulates body fluids); compared to the water-soluble salt, leuprolide acetate
From the text: as §1

For `CCOC(C)=O` [ethylacetate], the solubility in water [1] is given as “approx. 10%”.

In the case of `CC(=O)OCC(COC(C)=O)OC(C)=O` [triacetin], the solubility in water [1] is listed as “approx. 8%”.

For leuprolide oleate, the encapsulation efficiencies [2] was over 85% and the “retardation in drug release” value [3] was “even more pronounced retardation in drug release”.
